Laboratory results published in ChEMBL document CHEMBL5236554 (J Med Chem, 2021).
Activity calls are given as the source filed them. The calls are words filed in the database; no cut-off is given here. Square brackets hold non-standard residues; d marks the D form. Peptide text beside a SMILES is read from it. * marks the point of attachment. Boc = CC(C)(C)OC(=O)*

Key:
[1] = biological target: Neurolysin, mitochondrial (Rattus norvegicus, UniProt P42676); assay: Activation of recombinant rat Neurolysin using QFS as substrate incubated for 10 mins
Chain of Neurolysin, mitochondrial (P42676 whole entry): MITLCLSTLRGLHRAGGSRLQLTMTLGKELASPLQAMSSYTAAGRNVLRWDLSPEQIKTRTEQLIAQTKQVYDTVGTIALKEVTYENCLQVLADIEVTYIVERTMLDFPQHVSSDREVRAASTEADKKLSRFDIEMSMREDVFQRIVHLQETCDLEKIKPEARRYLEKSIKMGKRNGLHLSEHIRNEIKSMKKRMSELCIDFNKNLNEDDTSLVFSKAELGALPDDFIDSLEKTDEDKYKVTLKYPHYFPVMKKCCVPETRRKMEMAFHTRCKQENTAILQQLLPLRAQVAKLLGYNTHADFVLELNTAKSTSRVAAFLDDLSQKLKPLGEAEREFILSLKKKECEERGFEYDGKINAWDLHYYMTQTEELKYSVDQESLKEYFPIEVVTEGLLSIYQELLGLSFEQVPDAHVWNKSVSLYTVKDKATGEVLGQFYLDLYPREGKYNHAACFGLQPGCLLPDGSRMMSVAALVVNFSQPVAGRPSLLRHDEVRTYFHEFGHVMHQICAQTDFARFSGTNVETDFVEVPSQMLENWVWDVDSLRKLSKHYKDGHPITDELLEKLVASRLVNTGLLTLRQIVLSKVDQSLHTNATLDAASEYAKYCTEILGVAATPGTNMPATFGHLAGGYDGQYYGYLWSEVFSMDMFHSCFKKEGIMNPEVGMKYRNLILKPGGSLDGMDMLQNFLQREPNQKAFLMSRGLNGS

[2] = Metabolic stability in mouse plasma assessed as half life measured upto 240 mins by LC-MS/MS analysis; type: ADME, cell-free
[3] = Metabolic stability in mouse brain homogenate assessed as half life measured upto 240 mins by LC-MS/MS analysis; type: ADME, tissue-based; details: 4 h
[4] = Permeability coefficient across apical to basolateral side in mouse BEND3 cells co-cultured with mouse primary astrocytes incubated for 120 mins by LC-MS/MS analysis; type: ADME, cell-based; details: bend3, 2 h
[5] = biological target: Angiotensin-converting enzyme (Homo sapiens) (UniProt P12821); assay: Inhibition of recombinant human ACE catalytic activity measured up to 150 uM
Chain of Angiotensin-converting enzyme (Homo sapiens) (P12821 whole entry): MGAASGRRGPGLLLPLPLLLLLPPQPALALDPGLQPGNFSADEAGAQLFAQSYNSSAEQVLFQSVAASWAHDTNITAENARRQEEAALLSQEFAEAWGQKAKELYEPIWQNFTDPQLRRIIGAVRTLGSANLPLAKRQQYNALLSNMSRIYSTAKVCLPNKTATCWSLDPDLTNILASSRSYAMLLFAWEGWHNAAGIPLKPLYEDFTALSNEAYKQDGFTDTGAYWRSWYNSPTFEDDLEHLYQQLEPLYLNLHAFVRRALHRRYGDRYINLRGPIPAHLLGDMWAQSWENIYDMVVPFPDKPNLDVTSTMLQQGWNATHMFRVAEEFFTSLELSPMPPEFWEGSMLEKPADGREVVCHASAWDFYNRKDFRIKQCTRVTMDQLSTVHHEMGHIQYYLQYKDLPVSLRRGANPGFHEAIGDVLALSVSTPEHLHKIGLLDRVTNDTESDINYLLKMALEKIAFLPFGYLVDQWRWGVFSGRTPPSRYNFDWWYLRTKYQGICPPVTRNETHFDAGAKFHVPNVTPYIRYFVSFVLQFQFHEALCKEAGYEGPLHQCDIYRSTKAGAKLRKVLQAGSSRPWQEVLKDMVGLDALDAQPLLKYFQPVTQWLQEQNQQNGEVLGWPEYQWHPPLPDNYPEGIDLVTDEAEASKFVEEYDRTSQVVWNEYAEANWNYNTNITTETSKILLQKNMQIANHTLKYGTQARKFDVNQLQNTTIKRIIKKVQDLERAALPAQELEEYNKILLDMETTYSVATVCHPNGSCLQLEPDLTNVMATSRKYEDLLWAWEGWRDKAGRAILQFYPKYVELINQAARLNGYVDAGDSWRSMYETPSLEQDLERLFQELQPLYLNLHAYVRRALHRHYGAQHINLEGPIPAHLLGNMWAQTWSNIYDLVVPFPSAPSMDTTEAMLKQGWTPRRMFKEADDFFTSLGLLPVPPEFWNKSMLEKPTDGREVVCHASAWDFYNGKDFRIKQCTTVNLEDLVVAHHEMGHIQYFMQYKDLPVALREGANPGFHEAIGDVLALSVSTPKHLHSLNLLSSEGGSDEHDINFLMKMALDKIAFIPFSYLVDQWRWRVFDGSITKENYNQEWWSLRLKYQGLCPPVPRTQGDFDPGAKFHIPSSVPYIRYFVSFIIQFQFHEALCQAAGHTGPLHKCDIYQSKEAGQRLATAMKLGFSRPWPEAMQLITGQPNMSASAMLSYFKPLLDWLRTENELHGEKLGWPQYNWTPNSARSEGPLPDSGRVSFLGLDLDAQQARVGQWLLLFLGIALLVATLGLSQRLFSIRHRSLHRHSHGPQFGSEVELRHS

[6] = biological target: Thimet oligopeptidase (Homo sapiens) (UniProt P52888); assay: Inhibition of recombinant human THOP catalytic activity using Mca-Pro-Leu-Gly-Pro-D-Lys(DNP)-OH as substrate
Chain of Thimet oligopeptidase (Homo sapiens) (P52888 whole entry): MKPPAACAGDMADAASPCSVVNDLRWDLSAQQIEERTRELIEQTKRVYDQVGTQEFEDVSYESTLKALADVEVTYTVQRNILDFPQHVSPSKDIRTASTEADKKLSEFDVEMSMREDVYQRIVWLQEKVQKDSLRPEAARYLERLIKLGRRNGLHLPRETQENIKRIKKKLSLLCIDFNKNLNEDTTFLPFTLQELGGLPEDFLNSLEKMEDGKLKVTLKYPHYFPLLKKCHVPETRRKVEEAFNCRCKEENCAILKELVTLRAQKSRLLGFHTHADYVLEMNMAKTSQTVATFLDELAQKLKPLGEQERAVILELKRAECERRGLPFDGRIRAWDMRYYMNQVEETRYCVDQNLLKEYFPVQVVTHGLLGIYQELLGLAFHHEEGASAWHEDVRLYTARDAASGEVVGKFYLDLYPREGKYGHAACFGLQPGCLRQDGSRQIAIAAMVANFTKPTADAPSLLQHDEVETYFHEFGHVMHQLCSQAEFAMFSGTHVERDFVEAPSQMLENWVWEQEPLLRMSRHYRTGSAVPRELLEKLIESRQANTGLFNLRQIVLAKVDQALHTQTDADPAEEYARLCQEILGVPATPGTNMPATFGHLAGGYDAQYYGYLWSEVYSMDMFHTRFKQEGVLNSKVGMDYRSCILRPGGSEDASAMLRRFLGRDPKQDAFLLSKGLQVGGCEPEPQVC

[7] = biological target: Neprilysin (Homo sapiens) (UniProt P08473); assay: Inhibition of recombinant human NEP catalytic activity using Mca-Arg-Pro-Pro-Gly-Phe-Ser-Ala-Phe-Lys(Dnp)-OH as substrate
Chain of Neprilysin (Homo sapiens) (P08473 whole entry): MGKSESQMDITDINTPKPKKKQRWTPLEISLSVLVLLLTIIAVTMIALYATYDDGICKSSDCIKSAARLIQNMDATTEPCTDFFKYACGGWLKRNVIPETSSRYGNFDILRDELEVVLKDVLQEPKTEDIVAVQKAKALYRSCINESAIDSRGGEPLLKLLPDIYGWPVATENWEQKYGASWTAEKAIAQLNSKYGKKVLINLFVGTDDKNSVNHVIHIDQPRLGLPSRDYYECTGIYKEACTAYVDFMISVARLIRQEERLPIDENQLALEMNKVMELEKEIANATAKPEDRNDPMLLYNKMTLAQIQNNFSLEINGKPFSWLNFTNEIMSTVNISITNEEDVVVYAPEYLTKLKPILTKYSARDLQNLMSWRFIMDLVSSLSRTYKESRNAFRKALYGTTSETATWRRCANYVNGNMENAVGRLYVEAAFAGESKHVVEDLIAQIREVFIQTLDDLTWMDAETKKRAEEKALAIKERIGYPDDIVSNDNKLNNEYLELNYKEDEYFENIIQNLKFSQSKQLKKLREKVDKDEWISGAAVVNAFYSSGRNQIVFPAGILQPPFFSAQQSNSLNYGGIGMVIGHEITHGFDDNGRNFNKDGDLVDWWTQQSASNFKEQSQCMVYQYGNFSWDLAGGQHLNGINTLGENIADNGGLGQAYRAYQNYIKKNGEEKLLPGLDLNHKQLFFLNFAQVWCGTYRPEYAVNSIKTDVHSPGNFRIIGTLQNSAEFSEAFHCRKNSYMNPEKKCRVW

[8] = biological target: Angiotensin-converting enzyme 2 (Homo sapiens) (UniProt Q9BYF1); assay: Inhibition of recombinant human ACE2 catalytic activity at 300 uM using Mca-Ala-Pro-Lys-(Dnp)-OH as substrate
Chain of Angiotensin-converting enzyme 2 (Homo sapiens) (Q9BYF1 18-805 limits assumed): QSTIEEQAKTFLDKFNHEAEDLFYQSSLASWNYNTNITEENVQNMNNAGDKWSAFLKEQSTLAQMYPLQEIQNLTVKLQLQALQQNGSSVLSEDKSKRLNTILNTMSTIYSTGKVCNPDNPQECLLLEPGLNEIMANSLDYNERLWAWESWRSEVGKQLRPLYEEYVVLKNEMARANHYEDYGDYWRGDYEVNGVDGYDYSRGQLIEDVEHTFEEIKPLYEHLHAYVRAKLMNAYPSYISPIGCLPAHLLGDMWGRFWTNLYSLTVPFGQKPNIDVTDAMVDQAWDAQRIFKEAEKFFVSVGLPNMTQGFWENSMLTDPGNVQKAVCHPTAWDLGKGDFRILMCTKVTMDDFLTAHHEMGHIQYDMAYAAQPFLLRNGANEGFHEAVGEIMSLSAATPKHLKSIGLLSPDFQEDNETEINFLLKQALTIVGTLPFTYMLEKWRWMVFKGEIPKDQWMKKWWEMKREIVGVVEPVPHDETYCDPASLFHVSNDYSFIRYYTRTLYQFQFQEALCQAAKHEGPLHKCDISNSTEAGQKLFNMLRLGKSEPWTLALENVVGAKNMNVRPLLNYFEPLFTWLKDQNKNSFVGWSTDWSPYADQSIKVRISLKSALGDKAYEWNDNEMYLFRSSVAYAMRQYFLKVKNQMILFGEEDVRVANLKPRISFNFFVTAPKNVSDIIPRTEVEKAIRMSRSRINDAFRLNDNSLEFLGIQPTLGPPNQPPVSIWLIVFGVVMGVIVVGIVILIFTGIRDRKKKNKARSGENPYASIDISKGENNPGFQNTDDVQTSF

SMILES: N[C@@H](Cc1c[nH]cn1)C(=O)N[C@@H](Cc1ccccc1)C(=O)O (H-His-Phe-OH)
- EC50 ([1]; read-out: EC50): 74.5 µM

SMILES: CC(C)(C)OC(=O)N[C@@H](Cc1c[nH]cn1)C(=O)NCCc1c[nH]c2ccccc12
- EC50 [1]: Not Active

SMILES: N[C@@H](Cc1c[nH]cn1)C(=O)NCCc1ccc(F)cc1
- EC50 ([1]; read-out: EC50): 11.6 µM

SMILES: O=C(CCc1c[nH]cn1)NCCc1cc2ccccc2[nH]1
- EC50 [1]: Not Active

SMILES: CC(C)(C)OC(=O)N[C@@H](Cc1ccc(O)cc1)C(=O)N[C@H](Cc1ccccc1)C(=O)O (Boc-Tyr-[dF]-OH)
- EC50 [1]: Not Active

SMILES: NC(Cc1c[nH]cn1)C(=O)NCc1cccc2cccnc12 (racemic)
- EC50 ([1]; read-out: EC50): 5.8 µM

SMILES: N[C@@H](Cc1c[nH]cn1)C(=O)N[C@@H](Cc1ccc(O)cc1)C(=O)O (H-His-Tyr-OH)
- t1/2 ([2]; 4 h): 34.19 min
- t1/2 [3]: 1.03 min
- Kp [4]: 0.21 10^-3cm/min

SMILES: N[C@@H](Cc1c[nH]cn1)C(=O)NCc1cccc2ccccc12
- half-life [2]: > 1000 min
- t1/2 [3]: 80.3 min
- inhibition [5]: inactive
- inhibition [6]: inactive
- inhibition [7]: inactive
- Kp [4]: 1.09 10^-3cm/min
- inhibition [8]: inactive

SMILES: N[C@@H](Cc1ccc(O)cc1)C(=O)N[C@H](Cc1c[nH]cn1)C(=O)O
- EC50 [1]: Not Active
